Measured values published in paper PMC7932521, “2-aminobenzimidazoles for leishmaniasis: From initial hit discovery to in vivo profiling” (PLoS Neglected Tropical Diseases, 2021).
In brackets after ≈: the same amount, converted by molar mass.

System: P2Y
Assay: Bioprofiling 6pt Antag P2Y CHO
Format: cell-based
Details: antagonist readout vs ATP; read-out: Bioprofiling 6pt Antag P2Y CHO Hamster IC50
Experimental: (§1) The compounds were evaluated across a panel of 20 liability targets (37 functional assays) which included functional cell-based GPCRs and ion channels in both agonist and antagonist readout, measuring calcium flux and biochemical functional assays for nuclear hormone receptors and phosphodiesterases using TR-FRET format, in a 6 point 1:3 dilution dose series (maximum final concentration of 10 μM).

| Compound | IC50 [µM] |
| --- | --- |
| N#Cc1ccc2nc(NC(=O)c3ccc(C(F)(F)F)nc3)n(CC(F)(F)F)c2c1 [Compound 45, O=C(c1ccc(C(F)(F)F)nc1)Nc2nc(ccc(C#N)c3)c3n2CC(F)(F)F] | > 10 |
| N#Cc1ccc2nc(NC(=O)c3ccnc(C(F)(F)F)c3)n(CC(F)(F)F)c2c1 [Compound 44, O=C(c1ccnc(C(F)(F)F)c1)Nc2nc(ccc(C#N)c3)c3n2CC(F)(F)F] | > 10 |
| Cn1nccc1C(=O)Nc1nc2ccc(C#N)cc2n1CC(C)(C)C [Compound 29, O=C(Nc1n(CC(C)(C)C)c(c2n1)cc(C#N)cc2)c3n(C)ncc3] | > 10 |

System: not listed separately
Assay: Parallel artificial membrane permeability assay (PAMPA)
Format: in vitro ADME
Details: PAMPA, S1 Data; read-out: PAMPA Pe
Summary of the method: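 Compounds at 10μM final in PBS pH 6.5 (donor) against PBS pH 7.4 (acceptor) across lipid-coated membranes, incubated 5 h at 37°C. Donor, acceptor and T0 levels measured by LC-MS/MS to derive effective permeability (Pe); n = 3.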

| Compound | Papp at 5 h, 10 μM [×10⁻⁶ cm/s] |
| --- | --- |
| N#Cc1ccc2nc(NC(=O)c3ccc(C(F)(F)F)nc3)n(CC(F)(F)F)c2c1 [Compound 45, O=C(c1ccc(C(F)(F)F)nc1)Nc2nc(ccc(C#N)c3)c3n2CC(F)(F)F] | 5.43 |
| N#Cc1ccc2nc(NC(=O)c3ccnc(C(F)(F)F)c3)n(CC(F)(F)F)c2c1 [Compound 44, O=C(c1ccnc(C(F)(F)F)c1)Nc2nc(ccc(C#N)c3)c3n2CC(F)(F)F] | 2.32 |
| Cn1nccc1C(=O)Nc1nc2ccc(C#N)cc2n1CC(C)(C)C [Compound 29, O=C(Nc1n(CC(C)(C)C)c(c2n1)cc(C#N)cc2)c3n(C)ncc3] | 8.71 |

Same assay, conditions: passive permeability; read-out: PAMPA

| Compound | Papp at 5 h, 10 μM [×10⁻⁶ cm/s] |
| --- | --- |
| N#Cc1ccc2nc(NC(=O)c3ccnc(C(F)(F)F)c3)n(CC(F)(F)F)c2c1 [Compound 44, O=C(c1ccnc(C(F)(F)F)c1)Nc2nc(ccc(C#N)c3)c3n2CC(F)(F)F] | 2.3 |
| Cn1nccc1C(=O)Nc1nc2ccc(C#N)cc2n1CC(C)(C)C [Compound 29, O=C(Nc1n(CC(C)(C)C)c(c2n1)cc(C#N)cc2)c3n(C)ncc3] | 4.7 |

Molecular target: Cav1.2 (L-type) (Mus musculus, UniProt Q01815)
Sequence (Q01815 whole entry): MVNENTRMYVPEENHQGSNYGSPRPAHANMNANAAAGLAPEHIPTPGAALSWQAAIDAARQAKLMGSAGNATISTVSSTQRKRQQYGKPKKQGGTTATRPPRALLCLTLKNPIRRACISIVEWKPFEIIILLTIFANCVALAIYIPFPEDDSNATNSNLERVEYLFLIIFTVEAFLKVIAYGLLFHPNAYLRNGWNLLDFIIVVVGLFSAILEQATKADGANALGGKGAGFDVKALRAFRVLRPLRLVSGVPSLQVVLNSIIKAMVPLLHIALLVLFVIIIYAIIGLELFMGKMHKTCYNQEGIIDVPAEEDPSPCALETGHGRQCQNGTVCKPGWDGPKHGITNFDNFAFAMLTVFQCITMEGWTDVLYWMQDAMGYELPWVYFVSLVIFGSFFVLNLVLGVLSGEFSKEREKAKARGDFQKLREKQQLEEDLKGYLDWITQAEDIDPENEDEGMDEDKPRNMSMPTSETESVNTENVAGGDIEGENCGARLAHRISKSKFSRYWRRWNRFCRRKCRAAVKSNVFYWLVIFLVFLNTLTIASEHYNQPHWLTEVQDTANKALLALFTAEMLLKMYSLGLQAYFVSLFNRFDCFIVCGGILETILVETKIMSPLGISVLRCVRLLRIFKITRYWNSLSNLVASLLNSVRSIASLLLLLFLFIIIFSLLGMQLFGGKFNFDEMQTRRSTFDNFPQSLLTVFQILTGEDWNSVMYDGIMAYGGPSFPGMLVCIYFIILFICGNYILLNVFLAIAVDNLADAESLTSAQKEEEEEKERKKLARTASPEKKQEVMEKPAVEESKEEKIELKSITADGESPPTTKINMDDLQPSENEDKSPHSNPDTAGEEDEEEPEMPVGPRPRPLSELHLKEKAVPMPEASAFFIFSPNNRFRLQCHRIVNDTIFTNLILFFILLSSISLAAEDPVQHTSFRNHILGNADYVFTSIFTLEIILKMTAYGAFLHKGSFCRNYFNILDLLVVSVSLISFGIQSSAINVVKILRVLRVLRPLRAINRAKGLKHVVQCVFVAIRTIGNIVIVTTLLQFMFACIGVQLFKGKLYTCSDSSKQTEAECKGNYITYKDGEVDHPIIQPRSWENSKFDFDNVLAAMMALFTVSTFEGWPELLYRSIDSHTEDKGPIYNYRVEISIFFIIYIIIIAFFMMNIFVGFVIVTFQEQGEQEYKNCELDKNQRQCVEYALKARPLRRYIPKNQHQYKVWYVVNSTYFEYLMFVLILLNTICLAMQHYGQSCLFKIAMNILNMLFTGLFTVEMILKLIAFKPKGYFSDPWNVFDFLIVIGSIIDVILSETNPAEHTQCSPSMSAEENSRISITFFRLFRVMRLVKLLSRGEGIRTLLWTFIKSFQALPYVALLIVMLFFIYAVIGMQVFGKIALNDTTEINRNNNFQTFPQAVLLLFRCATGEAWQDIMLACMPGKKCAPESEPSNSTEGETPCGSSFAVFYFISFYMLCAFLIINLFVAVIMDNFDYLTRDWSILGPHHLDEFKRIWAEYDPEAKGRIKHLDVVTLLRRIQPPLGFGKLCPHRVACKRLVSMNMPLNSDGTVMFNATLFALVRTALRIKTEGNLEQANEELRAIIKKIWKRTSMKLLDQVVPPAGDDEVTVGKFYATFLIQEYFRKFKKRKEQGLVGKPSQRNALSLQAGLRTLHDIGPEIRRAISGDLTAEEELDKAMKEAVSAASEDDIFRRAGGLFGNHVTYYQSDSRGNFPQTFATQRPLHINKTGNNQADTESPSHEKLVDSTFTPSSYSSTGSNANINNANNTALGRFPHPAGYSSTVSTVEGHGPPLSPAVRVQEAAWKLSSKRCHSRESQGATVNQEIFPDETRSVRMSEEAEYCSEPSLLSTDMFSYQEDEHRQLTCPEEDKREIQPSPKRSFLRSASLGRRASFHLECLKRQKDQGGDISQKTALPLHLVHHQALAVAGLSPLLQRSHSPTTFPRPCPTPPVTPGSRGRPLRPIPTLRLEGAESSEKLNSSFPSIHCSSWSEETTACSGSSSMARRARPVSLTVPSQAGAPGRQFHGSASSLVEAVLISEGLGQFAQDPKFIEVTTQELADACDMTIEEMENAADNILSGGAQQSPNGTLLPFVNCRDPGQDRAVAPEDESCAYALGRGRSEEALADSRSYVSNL
Assay: Bioprofiling 6pt Antag Cav1.2 (L-type) ND7/23
Format: cell-based
Details: mouse/rat, ND7/23 cells; antagonist readout vs KCl
Experimental: as §1

| Compound | IC50 [µM] |
| --- | --- |
| N#Cc1ccc2nc(NC(=O)c3ccc(C(F)(F)F)nc3)n(CC(F)(F)F)c2c1 [Compound 45, O=C(c1ccc(C(F)(F)F)nc1)Nc2nc(ccc(C#N)c3)c3n2CC(F)(F)F] | > 10 |
| N#Cc1ccc2nc(NC(=O)c3ccnc(C(F)(F)F)c3)n(CC(F)(F)F)c2c1 [Compound 44, O=C(c1ccnc(C(F)(F)F)c1)Nc2nc(ccc(C#N)c3)c3n2CC(F)(F)F] | > 10 |
| Cn1nccc1C(=O)Nc1nc2ccc(C#N)cc2n1CC(C)(C)C [Compound 29, O=C(Nc1n(CC(C)(C)C)c(c2n1)cc(C#N)cc2)c3n(C)ncc3] | > 10 |

System: not listed separately
Assay: Kinetic solubility
Format: physicochemical
Details: PBS buffer pH 7.4, aqueous buffer, kinetic from dmso stock; PBS pH 7.4; read-out: KS PBS - pH7.4
Experimental: The precipitates on the incubation plate were removed by centrifugation (15 min, 3000 rpm, r.t.); the compound concentration in the resulting supernatant was determined by LC-MS/MS. Results were calculated as the concentration of remaining compound in solution after incubation.

| Compound | solubility kinetic at 24 h [µg/mL] |
| --- | --- |
| N#Cc1ccc2nc(NC(=O)c3ccc(C(F)(F)F)nc3)n(CC(F)(F)F)c2c1 [Compound 45, O=C(c1ccc(C(F)(F)F)nc1)Nc2nc(ccc(C#N)c3)c3n2CC(F)(F)F] | 0.41 (≈ 0.992 µM) |
| N#Cc1ccc2nc(NC(=O)c3ccnc(C(F)(F)F)c3)n(CC(F)(F)F)c2c1 [Compound 44, O=C(c1ccnc(C(F)(F)F)c1)Nc2nc(ccc(C#N)c3)c3n2CC(F)(F)F] | 0.41 (≈ 0.992 µM) |
| Cn1nccc1C(=O)Nc1nc2ccc(C#N)cc2n1CC(C)(C)C [Compound 29, O=C(Nc1n(CC(C)(C)C)c(c2n1)cc(C#N)cc2)c3n(C)ncc3] | 3.11 (≈ 9.24 µM) |

Same assay, conditions: PBS pH 2

| Compound | KS PBS - pH 2 [ug/mL] |
| --- | --- |
| N#Cc1ccc2nc(NC(=O)c3ccc(C(F)(F)F)nc3)n(CC(F)(F)F)c2c1 [Compound 45, O=C(c1ccc(C(F)(F)F)nc1)Nc2nc(ccc(C#N)c3)c3n2CC(F)(F)F] | 0.41 |
| N#Cc1ccc2nc(NC(=O)c3ccnc(C(F)(F)F)c3)n(CC(F)(F)F)c2c1 [Compound 44, O=C(c1ccnc(C(F)(F)F)c1)Nc2nc(ccc(C#N)c3)c3n2CC(F)(F)F] | 0.41 |
| Cn1nccc1C(=O)Nc1nc2ccc(C#N)cc2n1CC(C)(C)C [Compound 29, O=C(Nc1n(CC(C)(C)C)c(c2n1)cc(C#N)cc2)c3n(C)ncc3] | 1.77 |

Same assay, conditions: kinetic solubility, pH 7.4

| Compound | KS pH 7.4 [μM] |
| --- | --- |
| N#Cc1ccc2nc(NC(=O)c3ccnc(C(F)(F)F)c3)n(CC(F)(F)F)c2c1 [Compound 44, O=C(c1ccnc(C(F)(F)F)c1)Nc2nc(ccc(C#N)c3)c3n2CC(F)(F)F] | <1.0 |
| Cn1nccc1C(=O)Nc1nc2ccc(C#N)cc2n1CC(C)(C)C [Compound 29, O=C(Nc1n(CC(C)(C)C)c(c2n1)cc(C#N)cc2)c3n(C)ncc3] | 9.2 |

Molecular target: T1, Kv11.1 (hERG) (Homo sapiens, UniProt Q12809)
T1 construct: host or cells: T-REx-CHO, doxycycline-induced
T1 sequence (Q12809 whole entry): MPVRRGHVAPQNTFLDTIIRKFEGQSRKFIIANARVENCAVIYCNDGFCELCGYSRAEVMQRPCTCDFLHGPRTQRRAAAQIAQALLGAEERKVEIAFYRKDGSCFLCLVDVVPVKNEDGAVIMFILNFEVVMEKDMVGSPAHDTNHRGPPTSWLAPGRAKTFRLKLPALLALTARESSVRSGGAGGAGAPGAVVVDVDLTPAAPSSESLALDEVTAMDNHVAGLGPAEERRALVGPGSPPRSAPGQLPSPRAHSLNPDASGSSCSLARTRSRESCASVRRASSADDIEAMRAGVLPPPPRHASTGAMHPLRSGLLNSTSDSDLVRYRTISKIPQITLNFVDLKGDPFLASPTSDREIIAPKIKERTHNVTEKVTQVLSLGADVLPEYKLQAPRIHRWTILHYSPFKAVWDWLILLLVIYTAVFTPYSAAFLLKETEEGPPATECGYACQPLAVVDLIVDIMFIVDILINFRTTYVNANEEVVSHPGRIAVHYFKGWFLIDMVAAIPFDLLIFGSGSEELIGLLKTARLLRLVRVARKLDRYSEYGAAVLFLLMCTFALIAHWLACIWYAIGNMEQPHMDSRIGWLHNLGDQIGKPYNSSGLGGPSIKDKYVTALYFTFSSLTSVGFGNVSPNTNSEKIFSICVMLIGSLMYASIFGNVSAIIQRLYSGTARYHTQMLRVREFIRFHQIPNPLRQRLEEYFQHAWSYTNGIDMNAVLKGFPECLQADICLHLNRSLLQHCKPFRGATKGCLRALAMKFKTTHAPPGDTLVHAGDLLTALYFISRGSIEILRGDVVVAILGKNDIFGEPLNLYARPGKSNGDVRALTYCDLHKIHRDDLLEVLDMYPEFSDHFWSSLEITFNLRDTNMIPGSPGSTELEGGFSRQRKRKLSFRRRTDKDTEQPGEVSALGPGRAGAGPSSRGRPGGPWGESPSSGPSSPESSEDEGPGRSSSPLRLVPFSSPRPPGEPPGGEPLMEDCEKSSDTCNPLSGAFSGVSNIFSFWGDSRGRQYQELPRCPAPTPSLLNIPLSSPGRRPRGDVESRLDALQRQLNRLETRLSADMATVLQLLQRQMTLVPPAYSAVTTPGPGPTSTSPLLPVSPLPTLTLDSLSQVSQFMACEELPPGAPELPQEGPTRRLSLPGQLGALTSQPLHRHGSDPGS
Assay: hERG thallium influx assay
Format: cell-based
Details: KCl, read-out: Bioprofiling 6pt Thallium Influx Antag Kv11.1 (hERG) CHO Human IC50
Experimental: This was adapted from the literature method;[28] briefly, hERG functional activity was measured in an inducible hERG T-RExTM-CHO Cell line (ThermoFisher #K1237) using thallium influx as a surrogate indicator of potassium ion channel activity. Thallium enhances the fluorescent signal of BTC-AM dye (ThermoFisher #B6791). 384 well plates were seeded at 15,000 cells/well with doxycycline hyclate, included to induce expression of the hERG channel, and grown for 48 hours. Media was removed and cells were loaded with 4 μM dye for 90 mins in a low potassium buffer, dye was then removed and compound added to the cells in a high potassium buffer in a 6 point 1:3 dilution dose series (maximum final concentration of 30 μM). After 30 mins of compound incubation, channel activity was recorded upon addition of thallium buffer using a Tetra plate reader. The slope of the kinetic read was used to calculate channel activity.

| Compound | IC50 [µM] |
| --- | --- |
| N#Cc1ccc2nc(NC(=O)c3ccc(C(F)(F)F)nc3)n(CC(F)(F)F)c2c1 [Compound 45, O=C(c1ccc(C(F)(F)F)nc1)Nc2nc(ccc(C#N)c3)c3n2CC(F)(F)F] | > 30 |
| N#Cc1ccc2nc(NC(=O)c3ccnc(C(F)(F)F)c3)n(CC(F)(F)F)c2c1 [Compound 44, O=C(c1ccnc(C(F)(F)F)c1)Nc2nc(ccc(C#N)c3)c3n2CC(F)(F)F] | > 30 |
| Cn1nccc1C(=O)Nc1nc2ccc(C#N)cc2n1CC(C)(C)C [Compound 29, O=C(Nc1n(CC(C)(C)C)c(c2n1)cc(C#N)cc2)c3n(C)ncc3] | > 30 |

Molecular target: T2, M2 (Homo sapiens, UniProt P08172)
T2 construct: expressed in transfected cells; host or cells: CHO
T2 sequence (P08172 1-466): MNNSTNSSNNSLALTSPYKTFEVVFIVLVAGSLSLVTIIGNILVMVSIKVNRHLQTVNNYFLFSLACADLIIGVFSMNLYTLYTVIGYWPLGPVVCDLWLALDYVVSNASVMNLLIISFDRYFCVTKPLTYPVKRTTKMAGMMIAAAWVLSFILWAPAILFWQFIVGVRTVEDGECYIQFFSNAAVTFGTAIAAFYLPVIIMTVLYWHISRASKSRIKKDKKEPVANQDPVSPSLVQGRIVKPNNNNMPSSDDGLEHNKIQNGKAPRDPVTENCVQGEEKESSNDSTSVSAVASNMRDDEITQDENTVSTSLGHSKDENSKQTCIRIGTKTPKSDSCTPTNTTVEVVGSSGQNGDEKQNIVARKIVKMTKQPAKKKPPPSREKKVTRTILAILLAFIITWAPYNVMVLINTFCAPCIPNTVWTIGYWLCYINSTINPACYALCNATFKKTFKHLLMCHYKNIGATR
Assay: Bioprofiling 6pt Antag M2 CHO
Format: cell-based
Details: antagonist readout vs Carbachol
Experimental: as §1

| Compound | IC50 [µM] |
| --- | --- |
| N#Cc1ccc2nc(NC(=O)c3ccc(C(F)(F)F)nc3)n(CC(F)(F)F)c2c1 [Compound 45, O=C(c1ccc(C(F)(F)F)nc1)Nc2nc(ccc(C#N)c3)c3n2CC(F)(F)F] | > 10 |
| N#Cc1ccc2nc(NC(=O)c3ccnc(C(F)(F)F)c3)n(CC(F)(F)F)c2c1 [Compound 44, O=C(c1ccnc(C(F)(F)F)c1)Nc2nc(ccc(C#N)c3)c3n2CC(F)(F)F] | > 10 |
| Cn1nccc1C(=O)Nc1nc2ccc(C#N)cc2n1CC(C)(C)C [Compound 29, O=C(Nc1n(CC(C)(C)C)c(c2n1)cc(C#N)cc2)c3n(C)ncc3] | > 10 |

Molecular target: T3, Alpha1A (Homo sapiens, UniProt P35348)
T3 construct: expressed in transfected cells; host or cells: CHO
T3 sequence (P35348 1-466): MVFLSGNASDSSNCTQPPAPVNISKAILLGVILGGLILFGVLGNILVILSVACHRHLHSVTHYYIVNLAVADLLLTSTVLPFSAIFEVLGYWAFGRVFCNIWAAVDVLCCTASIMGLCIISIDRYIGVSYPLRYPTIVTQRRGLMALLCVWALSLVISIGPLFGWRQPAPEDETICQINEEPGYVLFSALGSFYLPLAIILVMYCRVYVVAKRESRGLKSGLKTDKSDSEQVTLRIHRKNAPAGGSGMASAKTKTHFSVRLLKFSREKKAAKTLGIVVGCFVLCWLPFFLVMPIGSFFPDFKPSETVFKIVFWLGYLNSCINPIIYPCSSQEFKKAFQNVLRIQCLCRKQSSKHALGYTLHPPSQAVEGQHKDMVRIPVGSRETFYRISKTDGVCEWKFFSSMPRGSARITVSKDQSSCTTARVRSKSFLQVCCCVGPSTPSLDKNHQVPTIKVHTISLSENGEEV
Assay: Bioprofiling 6pt Antag Alpha1A CHO
Format: cell-based
Details: antagonist readout vs A-61603
Experimental: as §1

| Compound | IC50 [µM] |
| --- | --- |
| N#Cc1ccc2nc(NC(=O)c3ccc(C(F)(F)F)nc3)n(CC(F)(F)F)c2c1 [Compound 45, O=C(c1ccc(C(F)(F)F)nc1)Nc2nc(ccc(C#N)c3)c3n2CC(F)(F)F] | > 10 |
| N#Cc1ccc2nc(NC(=O)c3ccnc(C(F)(F)F)c3)n(CC(F)(F)F)c2c1 [Compound 44, O=C(c1ccnc(C(F)(F)F)c1)Nc2nc(ccc(C#N)c3)c3n2CC(F)(F)F] | > 10 |
| Cn1nccc1C(=O)Nc1nc2ccc(C#N)cc2n1CC(C)(C)C [Compound 29, O=C(Nc1n(CC(C)(C)C)c(c2n1)cc(C#N)cc2)c3n(C)ncc3] | > 10 |

Molecular target: T4, PPARgamma (Homo sapiens, UniProt P37231)
T4 sequence (P37231 1-505): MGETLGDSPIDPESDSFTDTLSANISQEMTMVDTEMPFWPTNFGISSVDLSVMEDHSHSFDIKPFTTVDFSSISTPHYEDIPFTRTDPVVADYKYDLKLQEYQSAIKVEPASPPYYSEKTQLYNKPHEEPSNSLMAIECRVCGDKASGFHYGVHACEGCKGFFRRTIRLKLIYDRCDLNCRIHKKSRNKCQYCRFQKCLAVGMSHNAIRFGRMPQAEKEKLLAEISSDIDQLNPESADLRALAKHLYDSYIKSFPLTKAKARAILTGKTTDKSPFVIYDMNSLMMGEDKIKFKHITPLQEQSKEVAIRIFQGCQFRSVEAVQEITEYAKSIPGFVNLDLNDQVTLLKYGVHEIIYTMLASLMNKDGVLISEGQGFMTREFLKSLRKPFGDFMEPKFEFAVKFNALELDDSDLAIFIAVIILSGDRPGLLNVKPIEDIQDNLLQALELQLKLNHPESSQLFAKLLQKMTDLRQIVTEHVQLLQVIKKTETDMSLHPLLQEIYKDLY
Assay: Bioprofiling 6pt Ag PPARgamma
Format: biochemical
Details: agonist readout
Experimental: as §1

| Compound | EC50 [µM] |
| --- | --- |
| N#Cc1ccc2nc(NC(=O)c3ccc(C(F)(F)F)nc3)n(CC(F)(F)F)c2c1 [Compound 45, O=C(c1ccc(C(F)(F)F)nc1)Nc2nc(ccc(C#N)c3)c3n2CC(F)(F)F] | > 10 |
| N#Cc1ccc2nc(NC(=O)c3ccnc(C(F)(F)F)c3)n(CC(F)(F)F)c2c1 [Compound 44, O=C(c1ccnc(C(F)(F)F)c1)Nc2nc(ccc(C#N)c3)c3n2CC(F)(F)F] | > 10 |
| Cn1nccc1C(=O)Nc1nc2ccc(C#N)cc2n1CC(C)(C)C [Compound 29, O=C(Nc1n(CC(C)(C)C)c(c2n1)cc(C#N)cc2)c3n(C)ncc3] | > 10 |
